# Values of other authors in PubChem BioAssay AID1259410 (Chemical Carcinogenesis Research Information System (CCRIS), 2018).
# Test system: rodent tumor promotion studies, tumor incidence
# Experiment: CCRIS tumor promotion studies
# Conditions: Route [Promoter]: DERMAL, Species: MOUSE
compound,measurement,setting,value
CCCCCCCCCCCCCC(=O)O[C@@H]1[C@@H](C)[C@@]2(O)[C@@H](C=C(CO)C[C@]3(O)C(=O)C(C)=C[C@@H]23)[C@@H]2C(C)(C)[C@]12OC(C)=O,outcome,"Carcinogen: BENZO[B]FLUORANTHENE, 205-99-2, Doses [Carcinogen]: 0, 0.04, 0.12, 0.4 UMOL (TOTAL DOSE) APPLIED IN SUBDOSES 1/2 D FOR 5 WK, Doses [Carcinogen]: 0, 0.04, 0.12, 0.4 UMOL (TOTAL DOSE) APPLIED IN SUBDOSES 1/2 D FOR 5 WK, Doses [Promoter]: 2.5 UG IN 100 µL ACETONE 3/WK FOR 20 WK BEGINNING 10 D POST LAST CARCINOGEN DOSE (STUDY DURATION: 26 WK), Route [Carcinogen]: DERMAL, Strain/Sex: CD-1/FEMALE",skin: tumor
same,outcome,"Carcinogen: BENZO[B]FLUORANTHENE, 205-99-2, Doses [Carcinogen]: 40, 120, 400 NMOL (TOTAL DOSE) APPLIED 1/2 D FOR 10 SUBDOSES, Doses [Carcinogen]: 40, 120, 400 NMOL (TOTAL DOSE) APPLIED 1/2 D FOR 10 SUBDOSES, Doses [Promoter]: 0, 2.5 UG IN 100 µL ACETONE 3/WK FOR 20 WK BEGINNING 10 D POST CARCINOGEN TREATMENT (STUDY DURATION: 22 WK), Route [Carcinogen]: DERMAL, Strain/Sex: CRL:CD-1/FEMALE",skin: tumor
same,outcome,"Carcinogen: BENZO[B]FLUORANTHRENE, 205-99-2, Doses [Carcinogen]: 40, 100 NMOL TOTAL DOSES GIVEN IN 10 SUBDOSES 1/2 D IN 0.1 ML ACETONE, Doses [Promoter]: 2.5 UG IN 0.1 ML ACETONE 3/WK FOR 30 WK BEGINNING 10 D POST CARCINOGEN TREATMENT (STUDY DURATION: 34 WK), Route [Carcinogen]: DERMAL, Strain/Sex: CD-1/FEMALE",skin: tumors
same,outcome,"Carcinogen: BENZO[J]FLUORANTHENE, 205-82-3, Doses [Carcinogen]: 0, 1, 3 UMOL (TOTAL DOSE) IN ACETONE SOLUTION 1/2 D FOR 10 DOSES, Doses [Carcinogen]: 0, 1, 3 UMOL (TOTAL DOSE) IN ACETONE SOLUTION 1/2 D FOR 10 DOSES, Doses [Promoter]: 2.5 UG IN ACETONE 3/WK BEGINNING 10 D POST LAST CARCINOGEN DOSE AND CONTINUING FOR 20 WK (STUDY DURATION: 23 WK), Route [Carcinogen]: DERMAL, Strain/Sex: CD-1/FEMALE",skin: tumors
same,outcome,"Carcinogen: BENZO[J]FLUORANTHENE, 205-82-3, Doses [Carcinogen]: 0.3, 1, 2 UMOL (TOTAL DOSE) ADMINISTERED IN SUBDOSES 1/2 D, Doses [Carcinogen]: 0.3, 1, 2 UMOL (TOTAL DOSE) ADMINISTERED IN SUBDOSES 1/2 D, Doses [Promoter]: 2.5 UG IN 100 µL ACETONE 3/WK FOR 20 WK BEGINNING 10 D POST LAST CARCINOGEN DOSE (STUDY DURATION: 27 WK), Route [Carcinogen]: DERMAL, Strain/Sex: CD-1/FEMALE",skin: tumor
same,outcome,"Carcinogen: BENZO[K]FLUORANTHENE, 207-08-9, Doses [Carcinogen]: 4 UMOL (TOTAL DOSE) ADMINISTERED IN 10 SUBDOSES 1/2 D, Doses [Promoter]: 2.5 UG IN 0.1 ML ACETONE 3/WK FOR 30 WK BEGINNING 10 D POST CARCINOGEN TREATMENT (STUDY DURATION: 33 WK), Route [Carcinogen]: DERMAL, Strain/Sex: CRL:CD-1/FEMALE",skin: tumor
same,outcome,"Carcinogen: CAPTAN, 133-06-2, Doses [Carcinogen]: 450 MG/KG BW IN 200 µL DMSO 3/WK FOR 3 WK, Doses [Promoter]: 0, 5 UG IN 100 µL ACETONE 3/WK FOR 51 WK BEGINNING 1 WK POST CARCINOGEN TREATMENT (STUDY DURATION: 54 WK), Route [Carcinogen]: DERMAL, Strain/Sex: SWISS/FEMALE",skin: tumor
same,outcome,"Carcinogen: CARBARYL, 63-25-2, Doses [Carcinogen]: 100 MG/KG IN 100 µL ACETONE 3/WK FOR 3 WK, Doses [Promoter]: 0, 5 UG IN 100 µL ACETONE 3/WK FOR 51 WK BEGINNING 1 WK POST CARCINOGEN TREATMENT (STUDY DURATION: 52 WK), Route [Carcinogen]: DERMAL, Strain/Sex: SWISS/FEMALE",skin: tumor
same,outcome,"Carcinogen: CISPLATIN, 15663-27-1, Doses [Carcinogen]: 7.5 MG/KG IN 2.5% SALINE ONCE ON DAY 17 OF GESTATION, Doses [Promoter]: 0, 2 UG IN ACETONE 2/WK FOR 20 WK TO OFFSPRING OF MOTHERS ADMINISTERED CARCINOGEN (STUDY DURATION: 25 WK), Route [Carcinogen]: INTRAPERITONEAL, TRANSPLACENTAL, Strain/Sex: SENCAR/MALE, FEMALE",skin: papilloma
same,outcome,"Carcinogen: DIBENZO[A,L]PYRENE-8,9-DIHYDRODIOL, 130063-43-3, Doses [Carcinogen]: 100 NMOL IN 100 µL ACETONE ONCE, Doses [Promoter]: 3.24 NMOL/100 µL ACETONE 2/WK BEGINNING 2 WK POST CARCINOGEN DOSE AND CONTINUING FOR 24 WK (STUDY DURATION: 27 WK), Route [Carcinogen]: DERMAL, Strain/Sex: SENCAR/FEMALE",skin: tumor
same,outcome,"Carcinogen: DIBENZO[A,L]PYRENE-11,12-DIHYDRODIOL, 88191-01-9, Doses [Carcinogen]: 1 NMOL IN 100 µL ACETONE, Doses [Promoter]: 2.16 NMOL IN 100 µL ACETONE 2/WK FOR 27 WK BEGINNING 1 WK POST CARCINOGEN DOSE (STUDY DURATION: 28 WK), Route [Carcinogen]: DERMAL, Strain/Sex: SENCAR/FEMALE",skin: tumor
same,outcome,"Carcinogen: DIBENZO[A,L]PYRENE-11,12-DIHYDRODIOL, 88191-01-9, Doses [Carcinogen]: 4, 20, 100 NMOL IN 100 µL ACETONE ONCE, Doses [Carcinogen]: 4, 20, 100 NMOL IN 100 µL ACETONE ONCE, Doses [Promoter]: 3.24 NMOL/100 µL ACETONE 2/WK BEGINNING 2 WK POST CARCINOGEN DOSE AND CONTINUING FOR 24 WK (STUDY DURATION: 27 WK), Route [Carcinogen]: DERMAL, Strain/Sex: SENCAR/FEMALE",skin: tumor
same,outcome,"Carcinogen: DIBENZO[A,L]PYRENE-11,12-DIHYDRODIOL, 155254-86-7, Doses [Carcinogen]: 1.33, 4, 12 NMOL IN 100 ML ACETONE ONCE, Doses [Carcinogen]: 1.33, 4, 12 NMOL IN 100 ML ACETONE ONCE, Doses [Promoter]: 1.62 NMOL IN 100 ML ACETONE 2/WK FOR 28 WK BEGINNING 1 WK POST CARCINOGEN DOSE (STUDY DURATION: 30 WK), Route [Carcinogen]: DERMAL, Strain/Sex: SENCAR/FEMALE",skin: tumor
